This passage reports inhibition and Competition % results from patent US20120270237A9, “METHODS FOR THE IDENTIFICATION OF KINASE INTERACTING MOLECULES AND FOR THE PURIFICATION OF KINASE PROTEINS” (Cellzone AG, priority 2009, published 2012).

Usually inhibition stands for how much of the control response was suppressed.

Common to all, as to experiment: Kinobeads competition binding, HeLa Placenta lysate mix
What all share (parameters): endogenous in cells
Holding throughout (conditions): 10 μM free compound

The target in experiment [1] is Erk1 (Homo sapiens, UniProt P27361). The method, then:
(§1) To one aliquot of cell lysate 10 μM of the free compound (FIG. 3, CZC31326) was added and allowed to bind to proteins in the lysate. Then the affinity matrix with the immobilized compound was added to capture proteins that were not interacting with the previously added free compound. Beads were separated from the lysate and bead bound proteins were eluted in SDS sample buffer and subsequently separated by SDS-Polyacrylamide gel electrophoresis (FIG. 10). Suitable gel bands were cut out and subjected to in-gel proteolytic digestion with trypsin. The second lysate aliquot was processed identically, however no free compound was added (DMSO solvent control). Peptides originating from samples 1 and 2 were labeled with iTRAQ reagents (iTRAQ 114 and iTRAQ 117) and the combined samples were analyzed with a nano-flow liquid chromatography system coupled online to a tandem mass spectrometer (LC-MS/MS) experiment followed by iTRAQ reporter ion quantification in the MS/MS spectra as described in Example 2.

Experiment [2] has as its target T1, PKD3 (Homo sapiens, UniProt O94806).
T1 sequence (O94806 1-890): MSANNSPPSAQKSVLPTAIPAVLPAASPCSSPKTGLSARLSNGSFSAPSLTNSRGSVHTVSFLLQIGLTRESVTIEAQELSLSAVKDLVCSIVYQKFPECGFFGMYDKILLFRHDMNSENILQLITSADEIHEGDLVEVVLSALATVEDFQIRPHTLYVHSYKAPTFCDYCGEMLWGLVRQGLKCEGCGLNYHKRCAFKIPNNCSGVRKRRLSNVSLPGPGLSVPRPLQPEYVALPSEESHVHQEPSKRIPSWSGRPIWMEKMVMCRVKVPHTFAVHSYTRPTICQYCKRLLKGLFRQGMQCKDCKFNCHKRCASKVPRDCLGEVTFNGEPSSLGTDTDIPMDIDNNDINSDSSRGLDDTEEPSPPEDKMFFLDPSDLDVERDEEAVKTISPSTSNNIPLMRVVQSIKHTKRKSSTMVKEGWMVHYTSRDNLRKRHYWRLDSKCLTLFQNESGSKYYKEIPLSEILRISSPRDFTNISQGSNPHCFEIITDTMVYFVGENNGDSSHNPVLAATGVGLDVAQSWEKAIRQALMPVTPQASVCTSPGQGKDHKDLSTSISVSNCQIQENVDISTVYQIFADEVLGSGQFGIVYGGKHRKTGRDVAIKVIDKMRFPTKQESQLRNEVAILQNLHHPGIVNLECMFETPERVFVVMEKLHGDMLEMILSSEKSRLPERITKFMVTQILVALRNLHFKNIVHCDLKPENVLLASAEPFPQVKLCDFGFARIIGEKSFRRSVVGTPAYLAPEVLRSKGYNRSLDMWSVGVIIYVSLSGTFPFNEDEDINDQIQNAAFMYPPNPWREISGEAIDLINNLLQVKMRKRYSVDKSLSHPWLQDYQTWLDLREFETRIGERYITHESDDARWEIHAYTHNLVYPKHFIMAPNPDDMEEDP
The method, then:
as §1

Experiment [3] addresses MPSK1 (Homo sapiens, UniProt O75716). The method, then: as §1
Experiment [4] has as its target AMPKa1 (Homo sapiens, UniProt Q13131). The procedure: as §1
Experiment [5] has as its target T2, IRAK4 (Homo sapiens, UniProt Q9NWZ3).
T2 sequence (Q9NWZ3 1-460): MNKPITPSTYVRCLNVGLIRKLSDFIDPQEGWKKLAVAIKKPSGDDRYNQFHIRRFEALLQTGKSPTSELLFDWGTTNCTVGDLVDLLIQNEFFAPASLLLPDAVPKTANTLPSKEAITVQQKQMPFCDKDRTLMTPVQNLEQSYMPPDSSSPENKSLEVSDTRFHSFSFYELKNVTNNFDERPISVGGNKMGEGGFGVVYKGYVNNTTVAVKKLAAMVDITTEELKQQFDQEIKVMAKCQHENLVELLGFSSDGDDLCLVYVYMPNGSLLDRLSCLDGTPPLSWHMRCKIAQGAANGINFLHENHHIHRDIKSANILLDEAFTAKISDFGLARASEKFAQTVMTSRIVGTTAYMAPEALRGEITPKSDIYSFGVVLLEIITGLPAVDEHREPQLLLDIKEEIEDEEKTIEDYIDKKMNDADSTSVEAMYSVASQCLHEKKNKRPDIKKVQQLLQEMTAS
The procedure: as §1

The target in experiment [6] is T3, AurA (Homo sapiens, UniProt O14965).
T3 sequence (O14965 1-403): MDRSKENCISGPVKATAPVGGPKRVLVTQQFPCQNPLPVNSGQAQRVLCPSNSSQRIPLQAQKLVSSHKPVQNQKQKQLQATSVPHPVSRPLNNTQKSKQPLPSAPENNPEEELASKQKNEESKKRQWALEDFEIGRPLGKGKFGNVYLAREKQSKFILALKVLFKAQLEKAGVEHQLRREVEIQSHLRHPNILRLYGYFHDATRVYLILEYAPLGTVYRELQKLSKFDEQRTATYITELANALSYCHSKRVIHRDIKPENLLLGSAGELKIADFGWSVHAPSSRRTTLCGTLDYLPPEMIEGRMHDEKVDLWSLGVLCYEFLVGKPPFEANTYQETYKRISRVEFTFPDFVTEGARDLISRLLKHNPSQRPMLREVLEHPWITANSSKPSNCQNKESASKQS
The procedure: as §1

Experiment [7] deals with MSK2 (Homo sapiens, UniProt O75676). The procedure: as §1
The target of experiment [8] is LRRK2 (Homo sapiens, UniProt Q5S007). The method, then:
as §1

Experiment [9] deals with IRE1 (Homo sapiens, UniProt O75460). The method, then:
as §1

The structures appear in SMILES notation.

Erk1, sequence (P27361 whole entry): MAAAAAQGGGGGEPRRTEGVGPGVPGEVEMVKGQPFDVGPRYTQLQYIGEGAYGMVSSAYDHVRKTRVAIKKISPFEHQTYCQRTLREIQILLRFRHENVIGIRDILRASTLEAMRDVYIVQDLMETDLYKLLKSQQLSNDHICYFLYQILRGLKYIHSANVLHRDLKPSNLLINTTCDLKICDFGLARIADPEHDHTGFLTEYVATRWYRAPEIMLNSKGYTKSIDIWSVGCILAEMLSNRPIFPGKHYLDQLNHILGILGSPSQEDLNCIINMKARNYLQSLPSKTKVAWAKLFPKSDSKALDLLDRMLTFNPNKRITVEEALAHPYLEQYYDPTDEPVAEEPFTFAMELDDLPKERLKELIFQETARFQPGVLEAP
LRRK2, sequence (Q5S007 whole entry): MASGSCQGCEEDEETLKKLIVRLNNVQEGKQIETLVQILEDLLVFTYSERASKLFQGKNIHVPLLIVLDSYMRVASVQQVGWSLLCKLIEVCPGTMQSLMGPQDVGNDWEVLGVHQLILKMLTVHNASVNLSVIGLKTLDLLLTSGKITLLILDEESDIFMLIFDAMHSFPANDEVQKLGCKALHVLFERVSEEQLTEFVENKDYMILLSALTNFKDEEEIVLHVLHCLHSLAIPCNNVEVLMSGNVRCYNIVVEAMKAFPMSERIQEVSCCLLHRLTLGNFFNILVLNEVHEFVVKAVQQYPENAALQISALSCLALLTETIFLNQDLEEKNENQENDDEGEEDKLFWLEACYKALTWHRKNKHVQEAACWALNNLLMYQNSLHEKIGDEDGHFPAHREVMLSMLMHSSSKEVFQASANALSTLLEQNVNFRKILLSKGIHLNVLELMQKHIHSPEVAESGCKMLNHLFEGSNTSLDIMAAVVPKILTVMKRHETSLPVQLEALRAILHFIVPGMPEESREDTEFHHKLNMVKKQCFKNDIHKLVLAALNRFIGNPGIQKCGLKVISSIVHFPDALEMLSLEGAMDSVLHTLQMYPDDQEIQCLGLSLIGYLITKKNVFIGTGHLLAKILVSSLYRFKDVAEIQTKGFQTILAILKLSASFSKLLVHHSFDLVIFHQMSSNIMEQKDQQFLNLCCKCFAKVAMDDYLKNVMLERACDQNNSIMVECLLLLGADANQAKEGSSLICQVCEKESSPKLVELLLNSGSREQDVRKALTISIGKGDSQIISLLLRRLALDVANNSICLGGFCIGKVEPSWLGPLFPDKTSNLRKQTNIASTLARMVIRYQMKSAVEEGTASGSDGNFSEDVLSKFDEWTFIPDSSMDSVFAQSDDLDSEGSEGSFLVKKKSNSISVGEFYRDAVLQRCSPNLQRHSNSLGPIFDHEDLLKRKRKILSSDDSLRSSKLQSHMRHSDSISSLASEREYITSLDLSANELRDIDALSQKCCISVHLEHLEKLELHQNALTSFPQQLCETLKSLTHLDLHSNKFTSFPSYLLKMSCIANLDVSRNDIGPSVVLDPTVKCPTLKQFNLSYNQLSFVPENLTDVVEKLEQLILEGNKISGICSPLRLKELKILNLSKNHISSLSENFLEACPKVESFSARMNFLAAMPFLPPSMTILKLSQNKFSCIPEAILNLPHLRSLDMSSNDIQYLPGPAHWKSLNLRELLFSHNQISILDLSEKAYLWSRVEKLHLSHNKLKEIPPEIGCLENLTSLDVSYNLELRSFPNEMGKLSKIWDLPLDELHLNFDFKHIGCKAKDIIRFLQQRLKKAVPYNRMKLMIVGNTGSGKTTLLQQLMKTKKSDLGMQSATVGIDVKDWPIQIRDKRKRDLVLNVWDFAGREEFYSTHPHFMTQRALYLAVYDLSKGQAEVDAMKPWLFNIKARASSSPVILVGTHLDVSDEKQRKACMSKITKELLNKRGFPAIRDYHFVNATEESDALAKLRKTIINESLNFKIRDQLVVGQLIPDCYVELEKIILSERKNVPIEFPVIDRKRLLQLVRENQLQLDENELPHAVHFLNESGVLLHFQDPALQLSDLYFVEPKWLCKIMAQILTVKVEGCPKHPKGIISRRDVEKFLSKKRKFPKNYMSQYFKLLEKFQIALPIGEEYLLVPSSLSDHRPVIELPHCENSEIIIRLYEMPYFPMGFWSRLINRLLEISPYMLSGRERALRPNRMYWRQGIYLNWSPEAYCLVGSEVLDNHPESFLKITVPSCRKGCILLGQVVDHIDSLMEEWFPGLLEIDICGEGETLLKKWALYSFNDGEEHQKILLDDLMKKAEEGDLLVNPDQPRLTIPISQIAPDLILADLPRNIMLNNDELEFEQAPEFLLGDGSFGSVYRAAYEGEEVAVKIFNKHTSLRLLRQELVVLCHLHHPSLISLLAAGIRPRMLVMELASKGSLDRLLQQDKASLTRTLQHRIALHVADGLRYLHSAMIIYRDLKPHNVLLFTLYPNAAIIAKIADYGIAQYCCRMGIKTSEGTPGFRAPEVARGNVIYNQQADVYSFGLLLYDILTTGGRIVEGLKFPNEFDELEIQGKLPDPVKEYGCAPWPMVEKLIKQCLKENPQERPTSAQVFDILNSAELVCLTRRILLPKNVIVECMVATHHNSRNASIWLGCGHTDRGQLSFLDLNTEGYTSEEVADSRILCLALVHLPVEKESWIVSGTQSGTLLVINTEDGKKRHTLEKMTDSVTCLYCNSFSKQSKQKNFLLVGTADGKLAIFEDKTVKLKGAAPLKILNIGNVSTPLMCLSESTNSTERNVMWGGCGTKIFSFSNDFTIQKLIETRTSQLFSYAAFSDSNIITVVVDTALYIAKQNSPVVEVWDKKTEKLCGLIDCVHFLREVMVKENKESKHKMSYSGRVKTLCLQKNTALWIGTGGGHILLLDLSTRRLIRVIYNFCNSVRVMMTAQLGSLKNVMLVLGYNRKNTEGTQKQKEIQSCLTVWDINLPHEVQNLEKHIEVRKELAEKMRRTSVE
MPSK1, sequence (O75716 whole entry): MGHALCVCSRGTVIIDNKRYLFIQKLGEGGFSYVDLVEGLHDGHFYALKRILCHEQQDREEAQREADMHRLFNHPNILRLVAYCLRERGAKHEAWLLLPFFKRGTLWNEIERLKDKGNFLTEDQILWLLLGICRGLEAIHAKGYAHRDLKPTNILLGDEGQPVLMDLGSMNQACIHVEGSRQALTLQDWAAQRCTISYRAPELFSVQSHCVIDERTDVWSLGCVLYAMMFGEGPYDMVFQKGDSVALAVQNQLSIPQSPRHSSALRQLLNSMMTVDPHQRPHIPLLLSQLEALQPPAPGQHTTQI
MSK2, sequence (O75676 whole entry): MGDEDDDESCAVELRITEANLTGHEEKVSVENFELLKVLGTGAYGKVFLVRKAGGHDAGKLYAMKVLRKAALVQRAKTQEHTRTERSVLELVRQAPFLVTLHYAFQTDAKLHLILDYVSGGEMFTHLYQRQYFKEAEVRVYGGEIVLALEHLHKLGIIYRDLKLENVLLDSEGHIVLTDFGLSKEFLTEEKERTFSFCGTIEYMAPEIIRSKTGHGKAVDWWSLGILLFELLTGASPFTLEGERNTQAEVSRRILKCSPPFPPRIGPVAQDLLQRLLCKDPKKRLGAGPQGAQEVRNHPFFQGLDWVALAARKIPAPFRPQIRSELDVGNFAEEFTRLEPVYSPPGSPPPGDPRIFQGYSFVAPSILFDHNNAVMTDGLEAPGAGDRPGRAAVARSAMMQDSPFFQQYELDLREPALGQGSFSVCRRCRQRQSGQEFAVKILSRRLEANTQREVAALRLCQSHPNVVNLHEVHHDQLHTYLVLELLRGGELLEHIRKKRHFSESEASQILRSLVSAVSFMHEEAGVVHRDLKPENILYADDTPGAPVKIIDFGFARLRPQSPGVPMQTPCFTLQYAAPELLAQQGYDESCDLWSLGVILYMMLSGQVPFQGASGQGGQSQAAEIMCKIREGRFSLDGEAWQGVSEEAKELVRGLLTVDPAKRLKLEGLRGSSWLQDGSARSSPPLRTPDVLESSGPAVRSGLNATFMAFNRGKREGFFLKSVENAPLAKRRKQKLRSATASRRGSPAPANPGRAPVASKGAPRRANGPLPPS
IRE1, sequence (O75460 19-977): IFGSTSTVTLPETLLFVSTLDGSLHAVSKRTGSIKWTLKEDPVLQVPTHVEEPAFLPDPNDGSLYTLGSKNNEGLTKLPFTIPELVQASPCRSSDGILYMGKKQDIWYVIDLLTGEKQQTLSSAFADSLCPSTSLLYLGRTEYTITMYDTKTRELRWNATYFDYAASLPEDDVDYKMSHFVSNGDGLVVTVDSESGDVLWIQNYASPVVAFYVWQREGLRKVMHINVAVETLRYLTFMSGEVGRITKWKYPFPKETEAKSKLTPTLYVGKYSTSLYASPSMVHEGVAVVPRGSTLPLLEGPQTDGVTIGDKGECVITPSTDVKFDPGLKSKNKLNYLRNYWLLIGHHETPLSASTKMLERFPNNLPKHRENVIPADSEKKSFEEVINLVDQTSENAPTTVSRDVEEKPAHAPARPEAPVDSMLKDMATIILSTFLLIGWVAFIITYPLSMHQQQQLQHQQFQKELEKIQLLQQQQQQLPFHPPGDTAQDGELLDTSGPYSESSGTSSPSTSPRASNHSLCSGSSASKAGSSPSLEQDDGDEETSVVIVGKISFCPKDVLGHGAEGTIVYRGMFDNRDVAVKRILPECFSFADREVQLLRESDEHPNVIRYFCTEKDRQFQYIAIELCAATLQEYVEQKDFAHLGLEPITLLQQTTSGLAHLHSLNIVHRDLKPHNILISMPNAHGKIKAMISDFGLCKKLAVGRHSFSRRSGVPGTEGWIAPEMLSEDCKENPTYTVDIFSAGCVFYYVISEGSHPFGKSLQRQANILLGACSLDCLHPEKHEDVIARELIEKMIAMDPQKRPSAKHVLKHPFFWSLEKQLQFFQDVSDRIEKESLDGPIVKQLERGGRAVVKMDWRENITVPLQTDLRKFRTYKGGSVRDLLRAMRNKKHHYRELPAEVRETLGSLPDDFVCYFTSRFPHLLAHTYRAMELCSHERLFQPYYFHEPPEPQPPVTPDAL

With `CS(=O)(=O)Nc1ccccc1Nc1nc(Nc2cccc(OCCN)c2)ncc1Cl` [CZC31326, N-(2-(2-(3-(2-aminoethoxy)phenylamino)-5-chloropyrimidin-4-ylamino)phenyl)methanesulfonamide], the inhibition at 10 µM in experiment [1] came to 77.8%; in [2], 95.7%; in experiment [3], 91.5%; in [4], 94.9%; in [6], 94%; in experiment [7], 95.3%. For the same compound, the inhibition at 10 µM worked out at 85.2% in experiment [8] and 91.8% in experiment [9]. The Competition % in experiment [5] was determined as 93.8%.
